Data: patent US4742049A, “Semisynthetic erythromycin antibiotics” (Abbott Laboratories, priority 1986, dated 1988)
≈ marks a conversion by molar mass, not a printed value. Read-outs that look alike come from different tables or passages of the source.

Test system: Haemophilus influenzae
Assay: MIC against strains of Haemophilus influenzae
Assay type: cell-based
Method: Erythromycin A was used for this purpose.
After incubation, each disk is read.
In the manner of Example 23, the efficacy of compounds of this invention were tested against numerous strains of Haemophilus influenzae.

[1] = Haemophilus influenzae, ATCC9006, strain ATCC 9006, read-out: MIC
[2] = Haemophilus influenzae, ATCC9795, strain ATCC 9795, read-out: MIC
[3] = Haemophilus influenzae, ATCC10211, strain ATCC 10211, read-out: MIC
[4] = Haemophilus influenzae, ATCC19418, strain ATCC 19418, read-out: MIC
[5] = Haemophilus influenzae, strain 504, read-out: MIC
[6] = Haemophilus influenzae, strain 519A, read-out: MIC
[7] = Haemophilus influenzae, strain 566A, read-out: MIC
[8] = Haemophilus influenzae, strain 588A, read-out: MIC
[9] = Haemophilus influenzae, strain 632A, read-out: MIC
[10] = Haemophilus influenzae, strain 667A, read-out: MIC
[11] = Haemophilus influenzae, strain 747C, read-out: MIC
[12] = Haemophilus influenzae, strain 751, read-out: MIC
[13] = Haemophilus influenzae, strain 1177, read-out: MIC
[14] = Haemophilus influenzae, strain 1435, read-out: MIC
[15] = Haemophilus influenzae, strain 5036B, read-out: MIC
[16] = Haemophilus influenzae, strain DILL AMP R, read-out: MIC
[17] = Haemophilus influenzae, strain SOL AMP R, read-out: MIC
[18] = Haemophilus influenzae, strain SPK AMP R, read-out: MIC

| Compound | MIC [1] [µg/mL] | MIC [2] [µg/mL] | MIC [3] [µg/mL] | MIC [4] [µg/mL] | MIC [5] [µg/mL] | MIC [6] [µg/mL] | MIC [7] [µg/mL] | MIC [8] [µg/mL] | MIC [9] [µg/mL] | MIC [10] [µg/mL] | MIC [11] [µg/mL] | MIC [12] [µg/mL] | MIC [13] [µg/mL] | MIC [14] [µg/mL] | MIC [15] [µg/mL] | MIC [16] [µg/mL] | MIC [17] [µg/mL] | MIC [18] [µg/mL] | further results |
| --- | --- | --- | --- | --- | --- | --- | --- | --- | --- | --- | --- | --- | --- | --- | --- | --- | --- | --- | --- |
| CC[C@H]1OC(=O)[C@H](C)[C@@H](O[C@H]2C[C@@](C)(OC)[C@@H](O)[C@H](C)O2)[C@H](C)[C@@H](O[C@@H]2O[C@H](C)C[C@H](N(C)C)[C@H]2O)[C@](C)(OC)C[C@@H](C)C(=O)[C@H](C)[C@H]2N(CCCO)C(=O)O[C@]12C [Example 15, 11-deoxy-6-O-methyl erythromycin A 11,12-(N-3-hydroxypropyl)cyclic carbamate] | 0.5 (≈ 0.602 µM) | 0.5 (≈ 0.602 µM) | 1 (≈ 1.2 µM) | 1 (≈ 1.2 µM) | 1 (≈ 1.2 µM) | 0.5 (≈ 0.602 µM) | 1 (≈ 1.2 µM) | 1 (≈ 1.2 µM) | 1 (≈ 1.2 µM) | 1 (≈ 1.2 µM) | 0.5 (≈ 0.602 µM) | 1 (≈ 1.2 µM) | 1 (≈ 1.2 µM) | 0.5 (≈ 0.602 µM) | 1 (≈ 1.2 µM) | 0.5 (≈ 0.602 µM) | 0.5 (≈ 0.602 µM) | 1 (≈ 1.2 µM) | – |
| 11-deoxy-6-O-methyl erythromycin A 11,12-(N-3-hydroxyethyl)cyclic carbamate [Example 16] | – | – | – | – | – | – | – | – | – | – | – | – | – | – | – | – | – | – | MIC (strain 504): 1 µg/mL; MIC (strain 519A): .5 µg/mL; MIC (strain 566A): 1 µg/mL; MIC (strain 588A): .5 µg/mL; MIC (strain 632A): 1 µg/mL; MIC (strain 667A): 1 µg/mL; MIC (strain 747C): .5 µg/mL; MIC (strain 751): 1 µg/mL; MIC (strain 1177): 1 µg/mL; MIC (strain 1435): .25 µg/mL; MIC (strain 5036B): 1 µg/mL; MIC (strain ATCC 9006): .5 µg/mL; MIC (strain ATCC 9795): .5 µg/mL; MIC (strain ATCC 10211): 1 µg/mL; MIC (strain ATCC 19418): .5 µg/mL; MIC (strain DILL AMP R): .5 µg/mL; MIC (strain SOL AMP R): .5 µg/mL; MIC (strain SPK AMP R): 1 µg/mL |
| CC[C@H]1OC(=O)[C@H](C)[C@@H](O[C@H]2C[C@@](C)(OC)[C@@H](O)[C@H](C)O2)[C@H](C)[C@@H](O[C@@H]2O[C@H](C)C[C@H](N(C)C)[C@H]2O)[C@](C)(OC)C[C@@H](C)C(=O)[C@H](C)[C@H]2N(CCCN(C)C)C(=O)O[C@]12C [Example 12, 11-deoxy-6-O-methyl erythromycin A 11,12-[N-(3-dimethylamino)propyl]cyclic carbamate] | 0.5 (≈ 0.583 µM) | 0.5 (≈ 0.583 µM) | 1 (≈ 1.17 µM) | 1 (≈ 1.17 µM) | 1 (≈ 1.17 µM) | 0.5 (≈ 0.583 µM) | 1 (≈ 1.17 µM) | 0.5 (≈ 0.583 µM) | 0.5 (≈ 0.583 µM) | 0.5 (≈ 0.583 µM) | 0.5 (≈ 0.583 µM) | 0.5 (≈ 0.583 µM) | 0.5 (≈ 0.583 µM) | 0.25 (≈ 0.291 µM) | 1 (≈ 1.17 µM) | 0.5 (≈ 0.583 µM) | 0.5 (≈ 0.583 µM) | 0.5 (≈ 0.583 µM) | – |
